{"source": "paper PMC7187627", "about": "(Antimicrobial Agents and Chemotherapy, 2019)", "key": {"[1]": {"parameters": "method as in PMID 28584140", "conditions": "cited from earlier work"}, "[2]": {"assay": "Drug product stability (ICH Q1A(R2))", "format": "physicochemical", "conditions": "200-mg gelatin capsules, room temperature", "excerpt": "CRS3123 was provided by Crestone, Inc., in the form of dihydrochloride salt (CRS3123.2HCl) and formulated into 200-mg gelatin capsules by SRI International (Palo Alto, CA). Drug product stability specifications were met beyond the study period [stable for at least 60 months storage at room temperature monitored according to ICH Guidance for Industry Q1A(R2) Stability Testing of New Substances and Products]."}, "[3]": {"assay": "Fecal (stool) pharmacokinetics, multiple-ascending-dose phase 1 study", "format": "in vivo, human", "conditions": "for Cstool,ss (concentration in stool) / fe,stool (fe,feces,ss, fraction of dose excreted unchanged in feces over 24 h): day 10, median (minimum, maximum); for fe,stool (fe,feces,ss, fraction of dose excreted unchanged in feces over 24 h): % in Table S4", "description": "PK method development, validation, and sample testing for plasma, feces, and urine were performed at KCAS, LLC (Shawnee, KS). Plasma, urine, and fecal concentrations of CRS3123 were determined by means of validated, sensitive, and specific high-performance liquid chromatography/tandem mass spectrometric (HPLC-MS/MS) assays. The lower limits of quantification of CRS3123 in plasma, feces, and urine were 10.0 ng/ml, 60.0 ng/g, and 100.0 ng/ml, respectively. The validated urine PK assay measured total free CSR3123. Since the majority of urinary CRS3123 was excreted as glucuronide conjugates ([32]), an enzymatic cleavage step using glucuronidase was added to the process to convert the glucuronide conjugates to free CRS3123 for the urine analysis.\nA selective, accurate, and reproducible analytical method using LC-MS/MS for the quantitation of CRS3123 in human fecal homogenate was linear over a range of 10.0 to 2000 ng/ml (fecal homogenate) or 60.0 to 12,000 ng/g (fecal material). Since 11 fecal samples collected on day 10 exceeded the upper limit, this method was amended by validating it for an extended range of 50.0 to 3,000 μg/ml (fecal homogenate) or […] (fecal material).\n(iii) Fecal PK. Twenty-four-hour fecal collection was initiated for all subjects following dose 1 and dose 19 of study drug for measurement of CRS3123 concentrations in feces. A listing of individual PK fecal sample collection start and stop dates/times, fecal weight excreted for each planned collection, CRS3123 concentration in each fecal collection, and amount of CRS3123 excreted in each fecal collection was provided for each fecal collection for each treatment. The bioanalytical method was amended to allow for reanalysis of samples originally outside the linear range.\nThe following parameters were calculated from the fecal data: amount of unchanged drug excreted in feces (in nanograms) following doses 1 and 2 (Ae,feces) or doses 19 and 20 (Ae,feces,ss) calculated as fecal concentration × fecal weight (in the case of multiple fecal samples, Ae,feces and Ae,feces,ss were determined as the sum of the amount calculated in each fecal sample collected during the 24-h collection period), and fraction of dose excreted unchanged in feces (fe,feces,ss) over a 24-h interval after multiple dosing (expressed as a percentage), calculated as Ae,feces,ss divided by dose 19 plus dose 20.\nDue to the 12-h dosing interval utilized in this study, fe,feces,ss was calculated only after multiple dosing on day 10, when CRS3123 would be expected to be at or near steady state. […] A subject listing of individual fecal PK parameters for each treatment was provided for day 1 and for day 10."}, "C. difficile [4]": {"system": "C. difficile", "parameters": "method as in PMID 19258353, PMID 19251726", "conditions": "in vivo model of CDI, compared with vancomycin; cited from earlier work"}, "C. difficile [5]": {"system": "C. difficile", "parameters": "method as in PMID 19258353, PMID 19251726", "conditions": "cited from earlier work"}}, "note": "“And” between values parts separate entries of the source, which are not always exact repeats. Equal values may be shown once."}
{"smiles": "O=c1cc(NCCCN[C@@H]2CCOc3c(Br)cc(Br)cc32)[nH]c2ccsc12", "note": "[CRS3123]", "values": [{"measurement": "share of oral dose metabolized into glucuronide conjugates detectable in urine", "setting": "[1]", "result": "a small fraction"}, {"measurement": "systemic absorption following oral dosing", "setting": "[1]; preclinical testing and SAD study 100 mg to 1,200 mg", "result": "low systemic absorption"}, {"measurement": "safety and tolerability", "setting": "[1]; single oral doses 100 mg to 1,200 mg", "result": "safe and well tolerated"}, {"measurement": "drug product stability, storage time", "setting": "[2]", "result": "at least 60 months"}, {"measurement": "Cstool,ss (concentration in stool)", "setting": "[3]; 200 mg Q12h oral", "result": "2,115 μg/g and 2,115 (966, 4,430) μg/g"}, {"measurement": "fe,stool (fe,feces,ss, fraction of dose excreted unchanged in feces over 24 h)", "setting": "[3]; 200 mg Q12h oral", "result": "24.9% and 24.9 (1.9, 68.8) %"}, {"measurement": "Cstool,ss (concentration in stool)", "setting": "[3]; 400 mg Q12h oral", "result": "5,390 μg/g and 5,390 (2,920, 8,700) μg/g"}, {"measurement": "fe,stool (fe,feces,ss, fraction of dose excreted unchanged in feces over 24 h)", "setting": "[3]; 400 mg Q12h oral", "result": 52.0, "unit": "%"}, {"measurement": "Cstool,ss (concentration in stool)", "setting": "[3]; 600 mg Q12h oral", "result": "8,280 μg/g and 8,280 (2,200, 14,000) μg/g"}, {"measurement": "fe,stool (fe,feces,ss, fraction of dose excreted unchanged in feces over 24 h)", "setting": "[3]; 600 mg Q12h oral", "result": "43.1% and 43.1 (11.0, 125.8) %"}, {"measurement": "concentrations in feces", "setting": "[3]; all three doses tested", "result": "above 1,000 μg/g"}, {"measurement": "fecal concentrations relative to MIC90", "setting": "[3]; human, in vivo", "result": "substantially above the MIC90 value"}, {"measurement": "protection of hamsters against recurrence", "setting": "C. difficile [4]", "result": "superior to vancomycin"}, {"measurement": "C. difficile toxin production and sporulation", "setting": "C. difficile [5]", "result": "inhibits"}]}
